In patent US8969325B2, “TRPV1 antagonists” (AbbVie Inc., priority 2011, dated 2015):

Columns and labels:
human TRPV1 [1] = target: T1, human TRPV1 (Homo sapiens (Human), UniProt Q8NER1); test: Capsaicin Activation Assay (intracellular Ca2+, FLIPR); type: cell-based; settings: recombinant HEK293 cells expressing hTRPV1, 50 nM capsaicin
In short: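 Ca2+ fluorescence was recorded by FLIPR every 1 to 5 seconds in HEK293 cells, clonally selected for stable human TRPV1 expression and plated one day ahead. Test compounds came as serial dilutions of 10 mM DMSO stocks.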

human TRPV1 [2] = target: T1, human TRPV1; test: Acid Activation Assay (pH 5.0, intracellular Ca2+, FLIPR); type: cell-based; settings: percentage of the maximal pH 5.0-induced response remaining; recombinant HEK293 hTRPV1 cells; maximum concentration tested 37.5 μM
In short: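 Readout: peak [Ca2+]i fluorescence over baseline on FLIPR, expressed as percentage remaining of the maximal pH 5.0-evoked signal. Stable hTRPV1-HEK293 cells with Calcium-4 dye received compound (12 half-log concentrations, maximum 37.5 μM) 3 min before acidic pH 5.0 buffer.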

T1 sequence (Q8NER1 whole entry): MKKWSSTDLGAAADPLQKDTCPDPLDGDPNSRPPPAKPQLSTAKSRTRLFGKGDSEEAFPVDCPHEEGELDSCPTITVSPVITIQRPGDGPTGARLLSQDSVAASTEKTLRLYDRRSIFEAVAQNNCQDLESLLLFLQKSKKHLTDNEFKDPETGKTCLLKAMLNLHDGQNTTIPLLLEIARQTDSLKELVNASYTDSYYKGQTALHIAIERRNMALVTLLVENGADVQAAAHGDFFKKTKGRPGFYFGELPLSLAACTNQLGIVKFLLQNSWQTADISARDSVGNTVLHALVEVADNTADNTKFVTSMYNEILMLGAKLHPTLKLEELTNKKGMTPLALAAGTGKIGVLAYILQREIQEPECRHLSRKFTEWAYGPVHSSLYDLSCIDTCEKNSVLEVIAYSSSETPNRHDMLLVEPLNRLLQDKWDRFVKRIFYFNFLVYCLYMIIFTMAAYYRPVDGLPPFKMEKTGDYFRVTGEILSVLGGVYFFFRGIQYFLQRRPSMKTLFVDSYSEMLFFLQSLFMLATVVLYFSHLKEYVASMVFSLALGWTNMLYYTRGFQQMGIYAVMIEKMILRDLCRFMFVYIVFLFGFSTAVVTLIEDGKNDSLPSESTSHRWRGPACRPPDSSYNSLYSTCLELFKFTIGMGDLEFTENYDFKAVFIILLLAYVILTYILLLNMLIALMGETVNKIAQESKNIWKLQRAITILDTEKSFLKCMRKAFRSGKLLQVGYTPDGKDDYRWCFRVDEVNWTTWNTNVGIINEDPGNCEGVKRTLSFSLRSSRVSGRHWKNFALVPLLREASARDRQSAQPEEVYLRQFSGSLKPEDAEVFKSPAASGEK

CN1C(=O)NCc2c(NC(=O)N[C@@H]3C[C@@](C)(C(F)(F)F)Oc4ccccc43)cccc21 [Example 165, 1-(1-methyl-2-oxo-1,2,3,4-tetrahydroquinazolin-5-yl)-3-[(2S,4R)-2-methyl-2-(trifluoromethyl)-3,4-dihydro-2H-chromen-4-yl]urea]
IC50 (human TRPV1 [1]): 3 nM
human TRPV1 H^+ (max % remain) (human TRPV1 [2]): 18%

CN1C(=O)NCc2c(NC(=O)N[C@@H]3C[C@](C)(C(F)(F)F)Oc4ccccc43)cccc21 [Example 166, 1-(1-methyl-2-oxo-1,2,3,4-tetrahydroquinazolin-5-yl)-3-[(2R,4R)-2-methyl-2-(trifluoromethyl)-3,4-dihydro-2H-chromen-4-yl]urea]
IC50 (human TRPV1 [1]): 1 nM
human TRPV1 H^+ (max % remain) (human TRPV1 [2]): 10%

CN1Cc2c(NC(=O)N[C@@H]3CC(CF)(CF)Oc4cc(Cl)ccc43)cccc2N(C)C1=O [Example 167, 1-[(4R)-7-chloro-2,2-bis(fluoromethyl)-3,4-dihydro-2H-chromen-4-yl]-3-(1,3-dimethyl-2-oxo-1,2,3,4-tetrahydroquinazolin-5-yl)urea]
IC50 (human TRPV1 [1]): 5 nM
human TRPV1 H^+ (max % remain) (human TRPV1 [2]): 5%

CN1C(=O)NCc2c(NC(=O)N[C@@H]3CCOc4ccccc43)cccc21 [Example 168, 1-[(4R)-3,4-dihydro-2H-chromen-4-yl]-3-(1-methyl-2-oxo-1,2,3,4-tetrahydroquinazolin-5-yl)urea]
IC50 (human TRPV1 [1]): 1200 nM
human TRPV1 H^+ (max % remain) (human TRPV1 [2]): 28%

CN1C(=O)NCc2c(NC(=O)N[C@H]3CCOc4cc(OC(F)(F)F)ccc43)cccc21 [Example 169, 1-(1-methyl-2-oxo-1,2,3,4-tetrahydroquinazolin-5-yl)-3-[(4S)-7-(trifluoromethoxy)-3,4-dihydro-2H-chromen-4-yl]urea]
IC50 (human TRPV1 [1]): > 38000 nM
human TRPV1 H^+ (max % remain) (human TRPV1 [2]): 96%

CN1Cc2ccc(NC(=O)N[C@@H]3CC(CF)(CF)Oc4cc(Cl)ccc43)cc2NC1=O [Example 170, 1-[(4R)-7-chloro-2,2-bis(fluoromethyl)-3,4-dihydro-2H-chromen-4-yl]-3-(3-methyl-2-oxo-1,2,3,4-tetrahydroquinazolin-7-yl)urea]
IC50 (human TRPV1 [1]): 130 nM
human TRPV1 H^+ (max % remain) (human TRPV1 [2]): 16%

CN1Cc2ccc(NC(=O)N[C@@H]3C[C@@](C)(C(F)F)Oc4ccccc43)cc2NC1=O [Example 171, 1-[(2S,4R)-2-(difluoromethyl)-2-methyl-3,4-dihydro-2H-chromen-4-yl]-3-(3-methyl-2-oxo-1,2,3,4-tetrahydroquinazolin-7-yl)urea]
IC50 (human TRPV1 [1]): 1300 nM
human TRPV1 H^+ (max % remain) (human TRPV1 [2]): 63%

CN1Cc2ccc(NC(=O)N[C@@H]3CC(C)(C)Oc4c3ccc(F)c4Cl)cc2NC1=O [Example 172, 1-[(4R)-8-chloro-7-fluoro-2,2-dimethyl-3,4-dihydro-2H-chromen-4-yl]-3-(3-methyl-2-oxo-1,2,3,4-tetrahydroquinazolin-7-yl)urea]
IC50 (human TRPV1 [1]): 210 nM
human TRPV1 H^+ (max % remain) (human TRPV1 [2]): 51%

CN1Cc2ccc(NC(=O)N[C@@H]3CC(CF)(CF)Oc4cc(C(F)(F)F)ccc43)cc2NC1=O [Example 173, 1-[(4R)-2,2-bis(fluoromethyl)-7-(trifluoromethyl)-3,4-dihydro-2H-chromen-4-yl]-3-(3-methyl-2-oxo-1,2,3,4-tetrahydroquinazolin-7-yl)urea]
IC50 (human TRPV1 [1]): 100 nM
human TRPV1 H^+ (max % remain) (human TRPV1 [2]): 54%

CN1Cc2ccc(NC(=O)N[C@@H]3CCc4cc(C(F)(F)F)ccc43)cc2NC1=O [Example 174, 1-(3-methyl-2-oxo-1,2,3,4-tetrahydroquinazolin-7-yl)-3-[(1R)-5-(trifluoromethyl)-2,3-dihydro-1H-inden-1-yl]urea]
IC50 (human TRPV1 [1]): 130 nM
human TRPV1 H^+ (max % remain) (human TRPV1 [2]): 52%

CN1Cc2ccc(NC(=O)N[C@@H]3CCOc4ccccc43)cc2NC1=O [Example 175, 1-[(4R)-3,4-dihydro-2H-chromen-4-yl]-3-(3-methyl-2-oxo-1,2,3,4-tetrahydroquinazolin-7-yl)urea]
IC50 (human TRPV1 [1]): 4100 nM
human TRPV1 H^+ (max % remain) (human TRPV1 [2]): 62%

CN1Cc2ccc(NC(=O)N[C@@H]3CC(C)(C)Oc4cc(F)ccc43)cc2NC1=O [Example 176, 1-[(4R)-7-fluoro-2,2-dimethyl-3,4-dihydro-2H-chromen-4-yl]-3-(3-methyl-2-oxo-1,2,3,4-tetrahydroquinazolin-7-yl)urea]
IC50 (human TRPV1 [1]): 120 nM
human TRPV1 H^+ (max % remain) (human TRPV1 [2]): 50%

CCC1(CC)C[C@@H](NC(=O)Nc2ccc3c(c2)NC(=O)N(C)C3)c2cccc(F)c2O1 [Example 177, 1-[(4R)-2,2-diethyl-8-fluoro-3,4-dihydro-2H-chromen-4-yl]-3-(3-methyl-2-oxo-1,2,3,4-tetrahydroquinazolin-7-yl)urea]
IC50 (human TRPV1 [1]): 91 nM
human TRPV1 H^+ (max % remain) (human TRPV1 [2]): 59%

CCC1(CC)C[C@@H](NC(=O)Nc2ccc3c(c2)NC(=O)N(C)C3)c2ccccc2O1 [Example 178, 1-[(4R)-2,2-diethyl-3,4-dihydro-2H-chromen-4-yl]-3-(3-methyl-2-oxo-1,2,3,4-tetrahydroquinazolin-7-yl)urea]
IC50 (human TRPV1 [1]): 72 nM
human TRPV1 H^+ (max % remain) (human TRPV1 [2]): 52%

CN1Cc2ccc(NC(=O)N[C@@H]3CCc4cc(C(C)(C)C)ccc43)cc2NC1=O [Example 179, 1-[(1R)-5-tert-butyl-2,3-dihydro-1H-inden-1-yl]-3-(3-methyl-2-oxo-1,2,3,4-tetrahydroquinazolin-7-yl)urea]
IC50 (human TRPV1 [1]): 190 nM
human TRPV1 H^+ (max % remain) (human TRPV1 [2]): 37%

CCC1(CC)C[C@@H](NC(=O)Nc2ccc3c(c2)NC(=O)N(C)C3)c2ccc(C(F)(F)F)cc2O1 [Example 180, 1-[(4R)-2,2-diethyl-7-(trifluoromethyl)-3,4-dihydro-2H-chromen-4-yl]-3-(3-methyl-2-oxo-1,2,3,4-tetrahydroquinazolin-7-yl)urea]
IC50 (human TRPV1 [1]): 230 nM
human TRPV1 H^+ (max % remain) (human TRPV1 [2]): 12%

CCC1(CC)C[C@@H](NC(=O)Nc2ccc3c(c2)NC(=O)N(C)C3)c2ccc(Cl)cc2O1 [Example 181, 1-[(4R)-7-chloro-2,2-diethyl-3,4-dihydro-2H-chromen-4-yl]-3-(3-methyl-2-oxo-1,2,3,4-tetrahydroquinazolin-7-yl)urea]
IC50 (human TRPV1 [1]): 210 nM
human TRPV1 H^+ (max % remain) (human TRPV1 [2]): 28%

CCC1(CC)C[C@@H](NC(=O)Nc2ccc3c(c2)NC(=O)N(C)C3)c2ccc(Cl)c(Cl)c2O1 [Example 182, 1-[(4R)-7,8-dichloro-2,2-diethyl-3,4-dihydro-2H-chromen-4-yl]-3-(3-methyl-2-oxo-1,2,3,4-tetrahydroquinazolin-7-yl)urea]
IC50 (human TRPV1 [1]): 380 nM
human TRPV1 H^+ (max % remain) (human TRPV1 [2]): 29%

CN1Cc2ccc(NC(=O)N[C@@H]3CC(CF)(CF)Oc4cc(OC(F)(F)F)ccc43)cc2NC1=O [Example 183, 1-[(4R)-2,2-bis(fluoromethyl)-7-(trifluoromethoxy)-3,4-dihydro-2H-chromen-4-yl]-3-(3-methyl-2-oxo-1,2,3,4-tetrahydroquinazolin-7-yl)urea]
IC50 (human TRPV1 [1]): 120 nM
human TRPV1 H^+ (max % remain) (human TRPV1 [2]): 42%

CN1Cc2ccc(NC(=O)N[C@@H]3CC(C)(C)Oc4cc(C(F)(F)F)ccc43)cc2NC1=O [Example 184, 1-[(4R)-2,2-dimethyl-7-(trifluoromethyl)-3,4-dihydro-2H-chromen-4-yl]-3-(3-methyl-2-oxo-1,2,3,4-tetrahydroquinazolin-7-yl)urea]
IC50 (human TRPV1 [1]): 86 nM
human TRPV1 H^+ (max % remain) (human TRPV1 [2]): 44%

CCCC1(CCC)C[C@@H](NC(=O)Nc2ccc3c(c2)NC(=O)N(C)C3)c2cc(F)ccc2O1 [Example 185, 1-[(4R)-6-fluoro-2,2-dipropyl-3,4-dihydro-2H-chromen-4-yl]-3-(3-methyl-2-oxo-1,2,3,4-tetrahydroquinazolin-7-yl)urea]
IC50 (human TRPV1 [1]): 210 nM
human TRPV1 H^+ (max % remain) (human TRPV1 [2]): 61%
